According to paper PMC7594198 (International Journal of Nanomedicine, 2020):
Values belong to the molecule of their own block, whether it stands above or below them.

Columns and labels:
hCG protein [1] = target: T1, hCG protein (Homo sapiens, UniProt P01215+P0DN86); experiment: SPR kinetics of peptide-hCG binding, carboxyl-GO chip, clinical serum samples
hCG protein [2] = target: T1, hCG protein; experiment: SPR kinetics of peptide-hCG binding, GO-based chip, PBS buffer; details: hCG 10 pM-1 nM, 30 μL/min, 1:1 Langmuir model
[3] = test system: peptide probe immobilized on carboxyl-GO chip; experiment: SPR selectivity test with interfering proteins, spiked 10% serum; assay type: binding; details: protein 500 pM, 60 μL/min, measured six times
[4] = test system: peptide probe immobilized on carboxyl-GO chip; experiment: SPR selectivity test with interfering proteins, PBS buffer; assay type: binding; details: for interference signal: 500 pM, carboxyl-GO-based SPR aptasensor, PBS and spiked 10% serum; for average SPR angle shift: protein 500 pM, PBS buffer, 60 μL/min, measured six times

T1 sequence (P01215 25-116, other chains not shown): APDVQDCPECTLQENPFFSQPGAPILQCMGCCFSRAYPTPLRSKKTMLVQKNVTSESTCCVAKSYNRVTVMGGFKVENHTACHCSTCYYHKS

binding constant KA (hCG protein [1]; serum FDSW-1, 19 weeks): 7.22e+10 M⁻¹ | binding constant KA (hCG protein [1]; serum FDSW-2, 14 weeks): 9.39e+10 M⁻¹ | binding constant KA (hCG protein [1]; serum FDSW-3, 12 weeks): 2.033e+11 M⁻¹ | binding constant KA (hCG protein [1]; serum FDSW-4, 12 weeks): 5.71e+10 M⁻¹ | binding constant KA (hCG protein [1]; serum FDSW-5, 16 weeks): 5.14e+10 M⁻¹ | binding constant KA (hCG protein [1]; serum FDSW-6, 17 weeks): 1.39e+11 M⁻¹ | binding constant KA (hCG protein [1]; serum NPW-1, 15 weeks): 2.819e+11 M⁻¹ | binding constant KA (hCG protein [1]; serum NPW-2, 12 weeks): 2.763e+11 M⁻¹ | binding constant KA (hCG protein [1]; serum NPW-3, 14 weeks): 1.28e+10 M⁻¹ | binding constant KA (hCG protein [1]; serum NPW-4, 17 weeks): 1.48e+10 M⁻¹ | KA (hCG protein [2]): 1.41e+10 M⁻¹ | ka (hCG protein [2]): 7.32 ×10^6 M^−1S^−1 | kd (hCG protein [2]): 5.22 ×10^−4 S^−1
Molecule: H-PPLRINRHILTR-OH [peptide]

Molecule: bovine serum albumin [BSA]
average SPR angle shift [3]: 2.60 m^o | interference signal [4]: close to that of a blank solution | average SPR angle shift [4]: 1.31 m^o

Molecule: pregnancy-associated plasma protein A2 [PAPP-A2]
average SPR angle shift [3]: 2.51 m^o | interference signal [4]: close to that of a blank solution | average SPR angle shift [4]: 2.39 m^o

Molecule: pregnancy-associated plasma protein A [PAPP-A]
average SPR angle shift [3]: 2.42 m^o | interference signal [4]: close to that of a blank solution | average SPR angle shift [4]: 1.37 m^o

B1: human cytokeratin 19 (protein, UniProt P08727 1-400, looked up)
Keratin, type I cytoskeletal …: MTSYSYRQSSATSSFGGLGGGSVRFGPGVAFRAPSIHGGSGGRGVSVSSARFVSSSSSGAYGGGYGGVLTASDGLLAGNEKLTMQNLNDRLASYLDKVRALEAANGELEVKIRDWYQKQGPGPSRDYSHYYTTIQDLRDKILGATIENSRIVLQIDNARLAADDFRTKFETEQALRMSVEADINGLRRVLDELTLARTDLEMQIEGLKEELAYLKKNHEEEISTLRGQVGGQVSVEVDSAPGTDLAKILSDMRSQYEVMAEQNRKDAEAWFTSRTEELNREVAGHTEQLQMSRSEVTDLRRTLQGLEIELQSQLSMKAALEDTLAETEARFGAQLAHIQALISGIEAQLGDVRADSERQNQEYQRLMDIKSRLEQEIATYRSLLEGQEDHYNNLSASKVL
average SPR angle shift [3]: 1.74 m^o | interference signal [4]: close to that of a blank solution | average SPR angle shift [4]: 1.65 m^o
